Assay results: ChEMBL document CHEMBL5113500, “New brefeldin A-cinnamic acid ester derivatives as potential antitumor agents: Design, synthesis and biological evaluation” (Eur J Med Chem, 2022)
Activity calls are given as the source filed them. The rule behind the calls is not given here.

How the values were obtained:
Bel-7402 [1] = assay: Cell cycle arrest in human Bel-7402 cells assessed as accumulation at S phase at 1 uM measured after 24 hrs by propidium iodide staining based flow cytometry (reference value: 31%); format: functional
HepG2 [2] = assay: Cell cycle arrest in human HepG2 cells assessed as accumulation at G2/M phase at 0.4 uM measured after 24 hrs by propidium iodide staining based flow cytometry (reference value: 19.93%); format: functional
HepG2 [3] = assay: Cell cycle arrest in human HepG2 cells assessed as accumulation at S phase at 0.4 uM measured after 24 hrs by propidium iodide staining based flow cytometry (reference value: 32.81%); format: functional
HepG2 [4] = assay: Cell cycle arrest in human HepG2 cells assessed as accumulation at G1 phase at 0.4 uM measured after 24 hrs by propidium iodide staining based flow cytometry (reference value: 42.27%); format: functional
HepG2 [5] = assay: Induction of apoptosis in human HepG2 cells assessed as necrotic cells at 0.2 uM measured after 48 hrs by Annexin V-FITC/propidium iodide staining based flow cytometry (reference value: 2.04%); format: functional
HepG2 [6] = assay: Induction of apoptosis in human HepG2 cells measured after 48 hrs by Annexin V-FITC/propidium iodide staining based flow cytometry; format: functional, cell-based; settings: dose 0.2-0.8 µM, DDE = dose-dependent effect
HepG2 [7] = assay: Induction of apoptosis in human HepG2 cells assessed as chromatin shrinkage at 0.2 to 0.8 uM measured after 48 hrs by Hoechst 33342 staining based fluorescence microscopy; format: functional, cell-based; settings: dose 0.2-0.8 µM
HepG2 [8] = assay: Antiproliferative activity against human HepG2 cells measured after 72 hrs by MTT assay; format: functional, cell-based; settings: HepG2, 72 h
ECa-109 cell line = assay: Antiproliferative activity against human Eca-109 cells measured after 72 hrs by MTT assay; format: functional, cell-based; settings: ECa-109, 72 h
PANC-1 = assay: Antiproliferative activity against human PANC-1 cells measured after 72 hrs by MTT assay; format: functional, cell-based; settings: PANC-1, 72 h
[9] = Selectivity index, ratio of IC50 for human L02 cells to IC50 for human HepG2 cells; format: toxicity; settings: L02 cells and HepG2 cells, read-out: Ratio IC50
Bel-7402 [10] = assay: Inhibition of colony formation in human Bel-7402 cells at 2 uM treated every 3 days for 14 days by crystal violet staining based assay; format: functional, cell-based; settings: time 14.0 day
HepG2 [11] = assay: Inhibition of colony formation in human HepG2 cells assessed as reduction in colony size at 0.2 to 0.8 uM treated every 3 days for 14 days by crystal violet staining based microscopy; format: functional, cell-based; settings: dose 0.2-0.8 µM, time 14.0 day
Bel-7402 [12] = assay: Inhibition of colony formation in human Bel-7402 cells assessed as reduction in colony size at 0.5 to 2 uM treated every 3 days for 14 days by crystal violet staining based microscopy; format: functional, cell-based; settings: dose 0.5-2 µM, time 14.0 day
HepG2 [13] = assay: Cell cycle arrest in human HepG2 cells assessed as accumulation at G1 phase at 0.2 uM measured after 24 hrs by propidium iodide staining based flow cytometry (reference value: 42.27%); format: functional
HepG2 [14] = assay: Cell cycle arrest in human HepG2 cells assessed as accumulation at S phase at 0.2 uM measured after 24 hrs by propidium iodide staining based flow cytometry (reference value: 32.81%); format: functional
Bel-7402 [15] = assay: Cell cycle arrest in human Bel-7402 cells assessed as accumulation at S phase at 2 uM measured after 24 hrs by propidium iodide staining based flow cytometry (reference value: 31%); format: functional
HepG2 [16] = assay: Induction of apoptosis in human HepG2 cells assessed as early apoptotic cells at 0.4 uM measured after 48 hrs by Annexin V-FITC/propidium iodide staining based flow cytometry (reference value: 1.81%); format: functional
HepG2 [17] = assay: Induction of apoptosis in human HepG2 cells assessed as late apoptotic cells at 0.4 uM measured after 48 hrs by Annexin V-FITC/propidium iodide staining based flow cytometry (reference value: 1.66%); format: functional
HepG2 [18] = assay: Induction of apoptosis in human HepG2 cells assessed as early apoptotic cells at 0.8 uM measured after 48 hrs by Annexin V-FITC/propidium iodide staining based flow cytometry (reference value: 1.81%); format: functional
HepG2 [19] = assay: Induction of apoptosis in human HepG2 cells assessed as late apoptotic cells at 0.8 uM measured after 48 hrs by Annexin V-FITC/propidium iodide staining based flow cytometry (reference value: 1.66%); format: functional
HepG2 [20] = assay: Induction of apoptosis in human HepG2 cells assessed as increase in cleaved PARP expression at 0.2 to 0.8 uM measured after 48 hrs by Western blot analysis; format: functional, cell-based; settings: dose 0.2-0.8 µM
HepG2 [21] = assay: Induction of apoptosis in human HepG2 cells assessed as increase in cleaved caspase-3 expression at 0.2 to 0.8 uM measured after 48 hrs by Western blot analysis; format: functional, cell-based; settings: dose 0.2-0.8 µM
[22] = molecular target: ADP-ribosylation factor 1 (Homo sapiens) (UniProt P84077); assay: Binding affinity to Arf1 in human HepG2 cell lysate assessed as change in denaturation temperature at 25 uM measured after 3 mins by CETSA; format: subcellular
ADP-ribosylation factor 1 (Homo sapiens), sequence (P84077 whole entry): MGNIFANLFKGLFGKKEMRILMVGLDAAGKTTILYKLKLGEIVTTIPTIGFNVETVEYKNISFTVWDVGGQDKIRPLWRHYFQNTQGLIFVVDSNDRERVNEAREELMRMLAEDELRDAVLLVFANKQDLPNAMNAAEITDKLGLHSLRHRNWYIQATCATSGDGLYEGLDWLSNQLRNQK

[23] = Acute toxicity in ICR mouse assessed as body weight loss at 100 mg/kg, ip measured for 6 days; format: organism-based; settings: in vivo, 144 h, time 6 day
[24] = Acute toxicity in ICR mouse assessed as body weight loss at 809 mg/kg, po measured for 6 days; format: organism-based; settings: in vivo, 144 h, time 6 day
[25] = Acute toxicity in ICR mouse assessed as change in AST level at 100 mg/kg, ip measured after 6 days; format: organism-based; settings: in vivo, 144 h, time 6 day
[26] = Acute toxicity in ICR mouse assessed as change in ALP level at 100 mg/kg, ip measured after 6 days; format: organism-based; settings: in vivo, 144 h, time 6 day
[27] = Acute toxicity in ICR mouse assessed as change in urea level at 100 mg/kg, ip measured after 6 days; format: organism-based; settings: in vivo, 144 h, time 6 day
[28] = Acute toxicity in ICR mouse assessed as change in blood urea nitrogen level at 100 mg/kg, ip measured after 6 days; format: organism-based; settings: in vivo, 144 h, time 6 day
[29] = Acute toxicity in ICR mouse assessed as change in creatine kinase level at 100 mg/kg, ip measured after 6 days; format: organism-based; settings: in vivo, 144 h, time 6 day
[30] = Acute toxicity in ICR mouse assessed as pathological change in heart at 100 mg/kg, ip measured after 6 days; format: organism-based; settings: in vivo, 144 h, time 6 day
[31] = Acute toxicity in ICR mouse assessed as pathological change in spleen at 100 mg/kg, ip measured after 6 days; format: organism-based; settings: in vivo, 144 h, time 6 day
[32] = Terminal half life in ICR mouse at 10 mg/kg, iv; format: ADME, organism-based; settings: in vivo, read-out: beta t1/2 (converted)
[33] = Cmax in ICR mouse at 10 mg/kg, iv; format: ADME, organism-based; design: dose 10 mg/kg, route iv; settings: in vivo
[34] = AUC (0 to t) in ICR mouse at 10 mg/kg, iv; format: ADME, organism-based; design: dose 10 mg/kg, route iv; settings: in vivo
[35] = Clearance in ICR mouse at 10 mg/kg, iv; format: ADME, organism-based; settings: in vivo
HepG2 [36] = assay: Antitumor activity against human HepG2 cells xenografted in BALB/c nude mouse assessed as tumor growth inhibition at 5 mg/kg, ip administered once daily for 16 days relative to control; format: functional; settings: HepG2, 384 h, time 16 day, read-out: TGI
[37] = Toxicity in human HepG2 cells xenografted BALB/c nude mouse assessed as adverse effect at 5 to 10 mg/kg, ip administered once daily for 16 days; format: organism-based; settings: in vivo, 384 h, dose 5-10 mg/kg, time 16 day

Compound `C[C@H]1CCC/C=C/[C@@H]2C[C@H](O)C[C@H]2[C@H](OC(=O)/C=C/c2ccc(N(C)C)cc2)/C=C/C(=O)O1` has an Activity (Bel-7402 [1]) of 19.59%, an Activity (HepG2 [2]) of 20.88% and an Activity (HepG2 [3]) of 21.37%. The Activity (HepG2 [4]) was 57.76%, the Activity (HepG2 [5]) was 28.85% and the Activity (HepG2 [6]) was “Dde”. For the same compound, the Activity (HepG2 [7]) was “Active”, the IC50 (HepG2 [8]) was 290 nM and the IC50 (ECa-109 cell line) was 1770 nM. The IC50 (PANC-1) was 640 nM, the selectivity ratio [9] was 9.69 and the inhibition (Bel-7402 [10]) was “Active”. The inhibition (HepG2 [11]) was “Active”, the inhibition (Bel-7402 [12]) was “Active” and the Activity (HepG2 [13]) was 48.26%. The Activity (HepG2 [14]) was 29.24%, the Activity (Bel-7402 [15]) was 20.69% and the Activity (HepG2 [16]) was 1.45%. It also gave an Activity (HepG2 [17]) of 3.9%, an Activity (HepG2 [18]) of 1.49% and an Activity (HepG2 [19]) of 4.24%. The Activity (HepG2 [20]) was “Active”, the Activity (HepG2 [21]) was “Active” and the Activity [22] was “Active”. For the same compound, the Activity [23] was “Toxic”, the Activity [24] was “Toxic” and the Activity [25] was “Non-Toxic”. For the same compound, the Activity [26] was “Non-Toxic”, the Activity [27] was “Non-Toxic” and the Activity [28] was “Non-Toxic”. The Activity [29] was “Non-Toxic”, the Activity [30] was “Non-Toxic” and the Activity [31] was “Non-Toxic”. It also gave a half-life [32] of 125 min, a Cmax [33] of 14400 ng/mL and an AUC(0-t) [34] of 4010 ng·h/mL. For the same compound, the clearance [35] was 42.5 mL/min/kg, the inhibition in vivo at 5 mg/kg (HepG2 [36]) was 34.3% and the Activity [37] was “Non-Toxic”.
